Experimental data from ChEMBL document CHEMBL4673355, “Thiacalixarene based quaternary ammonium salts as promising antibacterial agents” (Bioorg Med Chem, 2021).
Where “and” joins values, the source holds several entries; their conditions need not be identical. Equal values may be shown once.

Tests used:
[1] = Selectivity index, ratio of CC50 for human HSF cells to MIC for Staphylococcus aureus ATCC 29213; type: toxicity
Escherichia coli [2] = test: Antibacterial activity against Escherichia coli ATCC 25922 assessed as reduction in bacterial growth incubated for 24 hrs by CLSI broth microdilution method; type: functional
[3] = Selectivity index, ratio of CC50 for human HSF cells to MIC for Staphylococcus epidermidis; type: toxicity; settings: for selectivity ratio: HSF cells
Pseudomonas aeruginosa [4] = test: Antibacterial activity against Pseudomonas aeruginosa ATCC 27853 assessed as reduction in bacterial growth incubated for 24 hrs by CLSI broth microdilution method; type: functional; settings: Pseudomonas aeruginosa, ATCC 27853, 24 h, read-out: MIC
[5] = tested on: Staphylococcus epidermidis; test: Bactericidal activity against Staphylococcus epidermidis assessed as reduction in bacterial growth incubated for 24 hrs followed by replating on MH broth and further incubated for 24 hrs by CLSI broth microdilution method; type: functional
[6] = Selectivity index, ratio of CC50 for human HSF cells to MIC for Bacillus subtilis 168; type: toxicity
Staphylococcus aureus [7] = test: Bactericidal activity against Staphylococcus aureus ATCC 29213 assessed as reduction in bacterial growth incubated for 24 hrs followed by replating on MH broth and further incubated for 24 hrs by CLSI broth microdilution method; type: functional; settings: time 48 hrs
Bacillus subtilis = test: Bactericidal activity against Bacillus subtilis 168 assessed as reduction in bacterial growth incubated for 24 hrs followed by replating on MH broth and further incubated for 24 hrs by CLSI broth microdilution method; type: functional; settings: Bacillus subtilis, 168, 24 h
Staphylococcus aureus [8] = test: Bactericidal activity against Staphylococcus aureus ATCC 29213; type: functional
Staphylococcus aureus [9] = test: Antibacterial activity against Staphylococcus aureus ATCC 6538 incubated for 24 hrs by CLSI broth microdilution method; type: functional
Staphylococcus aureus [10] = test: Antibacterial activity against Staphylococcus aureus ATCC 29213 by CLSI broth microdilution method; type: functional
Pseudomonas aeruginosa [11] = test: Antibacterial activity against Pseudomonas aeruginosa ATCC 9027 assessed as reduction in bacterial growth incubated for 24 hrs by CLSI broth microdilution method; type: functional
Escherichia coli [12] = test: Bactericidal activity against Escherichia coli ATCC 25922; type: functional
Klebsiella pneumoniae [13] = test: Antibacterial activity against Klebsiella pneumoniae ATCC 10031 assessed as reduction in bacterial growth incubated for 24 hrs by CLSI broth microdilution method; type: functional
Staphylococcus aureus [14] = test: Antibacterial activity against methicillin- resistant Staphylococcus aureus 25 clinical isolate assessed as reduction in bacterial growth incubated for 24 hrs by CLSI broth microdilution method; type: functional
Klebsiella pneumoniae [15] = test: Antibacterial activity against Klebsiella pneumoniae ATCC 1813 assessed as reduction in bacterial growth incubated for 24 hrs by CLSI broth microdilution method; type: functional
Staphylococcus aureus [16] = test: Antibacterial activity against methicillin- resistant Staphylococcus aureus 2020 clinical isolate assessed as reduction in bacterial growth incubated for 24 hrs by CLSI broth microdilution method; type: functional
Proteus sp. = test: Antibacterial activity against […] resistant Proteus sp. clinical isolate 17 assessed as reduction in bacterial growth incubated for 24 hrs by CLSI broth microdilution method; type: functional; settings: Proteus sp. (in: enterobacteria)
Staphylococcus aureus [17] = test: Antibacterial activity against methicillin- resistant Staphylococcus aureus 967 clinical isolate assessed as reduction in bacterial growth incubated for 24 hrs by CLSI broth microdilution method; type: functional
Pseudomonas = test: Antibacterial activity against methicillin- resistant Pseudomonas spp. clinical isolate 6 assessed as reduction in bacterial growth incubated for 24 hrs by CLSI broth microdilution method; type: functional
Klebsiella pneumoniae [18] = test: Bactericidal activity against Klebsiella pneumoniae ATCC 1813 assessed as reduction in bacterial growth incubated for 24 hrs followed by replating on MH broth and further incubated for 24 hrs by CLSI broth microdilution method; type: functional
[19] = Antibacterial activity against […] resistant Moraxella sp.765 clinical isolate assessed as reduction in bacterial growth incubated for 24 hrs by CLSI broth microdilution method; type: functional; settings: Moraxella catarrhalis
Acinetobacter [20] = test: Antibacterial activity against […] resistant Acinetobacter spp. clinical isolate 5 assessed as reduction in bacterial growth incubated for 24 hrs by CLSI broth microdilution method; type: functional
[21] = tested on: Staphylococcus haemolyticus; test: Antibacterial activity against methicillin- resistant Staphylococcus haemolyticus 837 assessed as reduction in bacterial growth incubated for 24 hrs by CLSI broth microdilution method; type: functional
Klebsiella sp. [22] = test: Antibacterial activity against […] resistant Klebsiella sp. clinical isolate 11 assessed as reduction in bacterial growth incubated for 24 hrs by CLSI broth microdilution method; type: functional
Acinetobacter [23] = test: Antibacterial activity against […] resistant Acinetobacter spp. clinical isolate 1 assessed as reduction in bacterial growth incubated for 24 hrs by CLSI broth microdilution method; type: functional
Staphylococcus aureus [24] = test: Antibacterial activity against Staphylococcus aureus ATCC 29213 assessed as reduction in bacterial growth incubated for 24 hrs by CLSI broth microdilution method; type: functional
Acinetobacter [25] = test: Antibacterial activity against […] resistant Acinetobacter spp. clinical isolate 3 assessed as reduction in bacterial growth incubated for 24 hrs by CLSI broth microdilution method; type: functional
Escherichia coli [26] = test: Bactericidal activity against Escherichia coli ATCC 25922 assessed as reduction in bacterial growth incubated for 24 hrs followed by replating on MH broth and further incubated for 24 hrs by CLSI broth microdilution method; type: functional
Klebsiella sp. [27] = test: Antibacterial activity against […] resistant Klebsiella sp. clinical isolate 12 assessed as reduction in bacterial growth incubated for 24 hrs by CLSI broth microdilution method; type: functional
Staphylococcus aureus [28] = test: Antibacterial activity against methicillin- resistant Staphylococcus aureus 983 clinical isolate assessed as reduction in bacterial growth incubated for 24 hrs by CLSI broth microdilution method; type: functional
[29] = Antibacterial activity against […] resistant Moraxella sp.764 clinical isolate assessed as reduction in bacterial growth incubated for 24 hrs by CLSI broth microdilution method; type: functional; settings: Moraxella catarrhalis
[30] = tested on: Staphylococcus intermedius; test: Antibacterial activity against methicillin- resistant Staphylococcus intermedius 1143 clinical isolate assessed as reduction in bacterial growth incubated for 24 hrs by CLSI broth microdilution method; type: functional
[31] = Antibacterial activity against […] resistant Moraxella sp.829 clinical isolate assessed as reduction in bacterial growth incubated for 24 hrs by CLSI broth microdilution method; type: functional; settings: Moraxella catarrhalis
[32] = tested on: Staphylococcus epidermidis; test: Antibacterial activity against Staphylococcus epidermidis assessed as reduction in bacterial growth incubated for 24 hrs by CLSI broth microdilution method; type: functional
[33] = Escherichia coli, ATCC 25922, 24 h, read-out: MIC
[34] = Staphylococcus epidermidis, read-out: MBC
[35] = Staphylococcus aureus, ATCC 29213, read-out: MBC

SMILES: CCCC[N+](C)(C)CCCNC(=O)COc1c2cc(C(C)(C)C)cc1Sc1cc(C(C)(C)C)cc(c1OCC(=O)NCCC[N+](C)(C)CCCC)Sc1cc(C(C)(C)C)cc(c1OCC(=O)NCCC[N+](C)(C)CCCC)Sc1cc(C(C)(C)C)cc(c1OCC(=O)NCCC[N+](C)(C)CCCC)S2.[Cl-].[Cl-].[Cl-].[Cl-]
- Ratio [1]: 19
- selectivity ratio ([1]; HSF cells): 11
- MIC (Escherichia coli [2]; 24 h): 64 µg/mL
- MIC (Escherichia coli [2]; [33]): > 64 µg/mL
- Ratio [3]: 19
- selectivity ratio [3]: 11
- MIC (Pseudomonas aeruginosa [4]): > 64 µg/mL
- MBC [5, 34]: 8 µg/mL
- Ratio [6]: 23 and 9
- MBC (Staphylococcus aureus [7]; [35]): 16 µg/mL
- MBC (Bacillus subtilis): 16 µg/mL

SMILES: CC(C)(C)c1cc2c(OCC(=O)NCCC[N+](C)(C)C)c(c1)Sc1cc(C(C)(C)C)cc(c1OCC(=O)NCCC[N+](C)(C)C)Sc1cc(C(C)(C)C)cc(c1OCC(=O)NCCC[N+](C)(C)C)Sc1cc(C(C)(C)C)cc(c1OCC(=O)NCCC[N+](C)(C)C)S2.[Cl-].[Cl-].[Cl-].[Cl-]
- MIC (Escherichia coli [2]; [33]): > 64 µg/mL
- Ratio [3]: 11
- selectivity ratio [3]: > 16
- MIC (Pseudomonas aeruginosa [4]): > 64 µg/mL
- MBC [5, 34]: 32 µg/mL
- Ratio [6]: > 16 and 43
- MBC (Staphylococcus aureus [7]; [35]): > 64 µg/mL
- MBC (Bacillus subtilis): 8 µg/mL

SMILES: CCCCCCCCOc1c2cc(C[N+](C)(C)CCO)cc1Cc1cc(C[N+](C)(C)CCO)cc(c1OCCCCCCCC)Cc1cc(C[N+](C)(C)CCO)cc(c1OCCCCCCCC)Cc1cc(C[N+](C)(C)CCO)cc(c1OCCCCCCCC)C2.[Cl-].[Cl-].[Cl-].[Cl-]
- MIC (Escherichia coli [2]; [33]): 32 µg/mL
- MBC (Staphylococcus aureus [8]): 16 µg/mL
- MIC (Staphylococcus aureus [9]): > 1000 µg/mL
- MIC (Staphylococcus aureus [10]): 16 µg/mL
- MIC (Pseudomonas aeruginosa [11]): 500 µg/mL
- MBC (Escherichia coli [12]): 256 µg/mL
- MIC (Klebsiella pneumoniae [13]): > 1000 µg/mL

SMILES: CCCCCCCCOc1c2cc(C[n+]3ccn(C)c3)cc1Cc1cc(C[n+]3ccn(C)c3)cc(c1OCCCCCCCC)Cc1cc(C[n+]3ccn(C)c3)cc(c1OCCCCCCCC)Cc1cc(C[n+]3ccn(C)c3)cc(c1OCCCCCCCC)C2.[Cl-].[Cl-].[Cl-].[Cl-]
- MIC (Escherichia coli [2]; [33]): 1000 µg/mL
- MIC (Staphylococcus aureus [9]): > 1000 µg/mL
- MIC (Pseudomonas aeruginosa [11]): 500 µg/mL
- MIC (Klebsiella pneumoniae [13]): > 1000 µg/mL

SMILES: CC(C)(C)c1cc2c(OCC(=O)NCCC[N+](C)(C)Cc3ccccc3)c(c1)Sc1cc(C(C)(C)C)cc(c1OCC(=O)NCCC[N+](C)(C)Cc1ccccc1)Sc1cc(C(C)(C)C)cc(c1OCC(=O)NCCC[N+](C)(C)Cc1ccccc1)Sc1cc(C(C)(C)C)cc(c1OCC(=O)NCCC[N+](C)(C)Cc1ccccc1)S2.[Cl-].[Cl-].[Cl-].[Cl-]
- MIC (Escherichia coli [2]; 24 h): 32 µg/mL
- MIC (Escherichia coli [2]; [33]): > 64 µg/mL
- MIC (Staphylococcus aureus [14]): 16 µg/mL
- MIC (Klebsiella pneumoniae [15]; 24 h): >64 µg/mL
- MIC (Klebsiella pneumoniae [15]; Klebsiella pneumoniae, ATCC 1813, 24 h, read-out: MIC): 32 µg/mL
- MIC (Staphylococcus aureus [16]): 64 µg/mL
- MIC (Proteus sp.): > 64 µg/mL
- MIC (Staphylococcus aureus [17]): 64 µg/mL
- MIC (Pseudomonas): 64 µg/mL
- MBC (Klebsiella pneumoniae [18]): 32 µg/mL
- MIC (Pseudomonas aeruginosa [4]): > 64 µg/mL
- MBC [5]: 16 µg/mL
- MBC [5, 34]: 32 µg/mL
- MIC [19]: 64 µg/mL
- MIC (Acinetobacter [20]): 64 µg/mL
- MIC [21]: 64 µg/mL
- MIC (Klebsiella sp. [22]): > 64 µg/mL
- MBC (Staphylococcus aureus [7]; [35]): 64 µg/mL
- MBC (Staphylococcus aureus [7]): 64 µg/mL
- MIC (Acinetobacter [23]): 64 µg/mL
- MIC (Staphylococcus aureus [24]): 4 µg/mL
- MIC (Staphylococcus aureus [24]; Staphylococcus aureus, ATCC 29213, 24 h, read-out: MIC): 4 µg/mL
- MIC (Acinetobacter [25]): 64 µg/mL
- MBC (Escherichia coli [26]): 64 µg/mL
- MIC (Klebsiella sp. [27]): 64 µg/mL
- MIC (Staphylococcus aureus [28]): 64 µg/mL
- MIC [29]: 64 µg/mL
- MIC [30]: 16 µg/mL
- MIC [31]: 64 µg/mL
- MIC [32]: 2 µg/mL
- MIC ([32]; Staphylococcus epidermidis, read-out: MIC): 4 µg/mL
